Laboratory results from patent US11767313B2, “Compounds as nuclear transport modulators and uses thereof” (XWPHARMA LTD., priority 2018, dated 2023).
Read-outs that look alike come from different tables or passages of the source.

Key:
U87MG = assay: CellTiter-Glo cell proliferation assay, U87MG; assay type: cell-based, human; settings: for IC50: Homo sapiens, U-87 MG
Outline: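 Cells were seeded at 1,500 to 5,000 per well overnight, then exposed for 72 hours to 10 concentrations of compound from 2- or 3-fold serial dilutions. Viability was read as CellTiter-Glo luminescence, and % growth was normalized to DMSO-treated cells and medium-only background. IC50 came from concentration-response fitting.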

T98G = assay: CellTiter-Glo cell proliferation assay, T98G; assay type: cell-based; settings: Homo sapiens, T98G
Protocol: (§1) CellTiter-Glo® Luminescent Cell Viability assay (with Promega CellTiter 96® Luminescent CellTiter-Glo® kit) was used to study the proliferation inhibition by test compounds. Compounds were resuspended in DMSO to make a 25 mM stock suspension. Cells of cancer cell lines or normal tissues were seeded in 96-well plates at 1,500 to 5,000 cells/well overnight. Compounds were 2- or 3-fold diluted serially to obtain 10 concentrations. Then, the drugs were added to the cell wells by Bravo (Agilent) and incubated for 72 hours. The cells were lysed by adding CellTiter-Glo® Reagent (per manufacturer's instructions) and subsequently, the luminescence was read using EnVision® (PerkinElmer).
(§2) The percent of growth was calculated as follows. DMSO-treated cells were employed as vehicle control (High control, HC) and culture medium alone was employed as background (Low control, EC). % growth=100×(Lum sample−Lum EC)/(Lum HC−Lum EC). The ICso was calculated by concentration-response curve fitting using Graphpad Prism.
(§3) Hematological cancer cell lines tested included OCI-AML3, MV-4-11, KG-1, Kasumi-1, K562, THP-1; solid cancer cell lines tested included U87MG, U251, T98G, LN229, A172, H460, H2009, A549; normal cell lines tested included HCN2 and 3T3-L1. […] However, they were not toxic to in vitro cultured normal cells.

LN-229 = assay: CellTiter-Glo cell proliferation assay, LN-229; assay type: cell-based; settings: Homo sapiens, LN-229
Protocol: as §1, §2, §3

U251 = assay: CellTiter-Glo cell proliferation assay, U251; assay type: cell-based; settings: Homo sapiens, U-251
Protocol: as §1, §2, §3

HCN2 = assay: CellTiter-Glo cell proliferation assay, HCN2 (normal brain); assay type: cell-based
Protocol: as §1, §2, §3

3T3-L1 = assay: CellTiter-Glo cell proliferation assay, 3T3-L1 (normal); assay type: cell-based; settings: Mus musculus
Protocol: as §1, §2, §3

[1] = Pharmacokinetic profile summary; assay type: in vivo, mice or rats; settings: for bioavailability / Kp at 1 h: oral; for bioavailability / half-life: mice or rats; for AUC / Cmax: po; for Kp at 1 h: brain/plasma, read-out: B/P ratio (Cmax time) 10 mpk
Protocol: Blood was collected from mice (n=3, or 5) to contribute to the total of 10 time points (pre-dose, 5 min, 15 min, 30 min, 1 hour, 2 hours, 4 hours, 8 hours, 12 hours and 24 hours). At the designated time points, animals were anaesthetized under isoflurane, and approximately 110 μL of blood per time point was collected via retro-orbital puncture into pre-cooled K2EDTA tubes. Blood samples were put on wet ice and centrifuged (2000 g, 5 min at 4° C.) to obtain plasma within 30 minutes of sample collection. All samples were stored frozen at approximately −80° C. until analysis. Prior to analysis, samples were mixed with internal standard in acetonitrile, vortexed, centrifuged, and supernatant was injected for analysis. Concentration of compounds in plasma was determined using LC-MS-MS instrumentation (API 4000, Triple Quadrupole LC/MS/MS Mass Spectrometer). AUC values were calculated using Phoenix Win Nonlin 6.3 software package, PO-Noncompartmental model 200 (extravascular input).
Following collection, brain tissue was rinsed with cold saline, dried on filter paper, weighed and snap-frozen by placing on dry ice. All samples were stored frozen at approximately −80° C. until analysis. At the time of analysis, brain tissue was homogenized (homogenizing solution PBS, pH 7.4), mixed with internal standard in acetonitrile, vortexed, centrifuged, and supernatant was injected for analysis. Concentration of compounds in plasma was determined using LC-MS-MS instrumentation (API 4000, Triple Quadrupole LC/MS/MS Mass Spectrometer). Plasma samples were treated with the identical method (except homogenization step) and the concentration of compound in each matrix was calculated based on generated standard curves.
The pharmacokinetic profile of test compounds in mice or rats was determined from several test compounds was determined using the methods described in Example 22.

[2] = Pharmacokinetic profile in plasma; assay type: in vivo; settings: mouse, iv, I. V., mice
XPO1 = XPO1 (Homo sapiens, UniProt O14980); assay: REV-GFP translocation assay in U2OS cells; assay type: cell-based; design: endogenous in cells; host or cells: U2OS cells stably expressing REV-GFP (clones from HD Biosciences); settings: for IC50: Table 10
Outline: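 High-content imaging (Hoechst and GFP channels, 20× objective) quantified REV-GFP nuclear translocation in U2OS cells after 1 h compound exposure at 37° C, maximum 10 μM. Cells were formaldehyde-fixed before staining. Results expressed as % effect scaled between vehicle control and 50 nM LMB.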

in vivo = settings: female, mouse
[3] = 72 h, U87MG, 72 hours, Table 1, read-out: Growth inhibition (IC50)
[4] = Table 9, first value column, read-out: U87MG IC50
[5] = Table 9, second value column, read-out: U87MG IC50
[6] = Table 11, read-out: Absolute IC50 (μM) T98G
[7] = Table 11, read-out: Absolute IC50 (μM) LN-229
[8] = Table 11, read-out: Absolute IC50 (μM) U251
[9] = 72 h, HCN2 normal cell line, 72 hours, Table 1, read-out: Growth inhibition (IC50)
[10] = 10 mg/kg, plasma, 10 mpk, read-out: Cmax (ng/ml) plasma/10 mpk
[11] = REV-EGFP U2OS cells, 1 h, Table 2, read-out: Rev-GFP/EC50
[12] = first (or only) value of the cell
[13] = Table 13, read-out: Rev-GFP assay/μM
[14] = 72 hours, Table 1, read-out: Growth inhibition (IC50)

XPO1, sequence (O14980 whole entry): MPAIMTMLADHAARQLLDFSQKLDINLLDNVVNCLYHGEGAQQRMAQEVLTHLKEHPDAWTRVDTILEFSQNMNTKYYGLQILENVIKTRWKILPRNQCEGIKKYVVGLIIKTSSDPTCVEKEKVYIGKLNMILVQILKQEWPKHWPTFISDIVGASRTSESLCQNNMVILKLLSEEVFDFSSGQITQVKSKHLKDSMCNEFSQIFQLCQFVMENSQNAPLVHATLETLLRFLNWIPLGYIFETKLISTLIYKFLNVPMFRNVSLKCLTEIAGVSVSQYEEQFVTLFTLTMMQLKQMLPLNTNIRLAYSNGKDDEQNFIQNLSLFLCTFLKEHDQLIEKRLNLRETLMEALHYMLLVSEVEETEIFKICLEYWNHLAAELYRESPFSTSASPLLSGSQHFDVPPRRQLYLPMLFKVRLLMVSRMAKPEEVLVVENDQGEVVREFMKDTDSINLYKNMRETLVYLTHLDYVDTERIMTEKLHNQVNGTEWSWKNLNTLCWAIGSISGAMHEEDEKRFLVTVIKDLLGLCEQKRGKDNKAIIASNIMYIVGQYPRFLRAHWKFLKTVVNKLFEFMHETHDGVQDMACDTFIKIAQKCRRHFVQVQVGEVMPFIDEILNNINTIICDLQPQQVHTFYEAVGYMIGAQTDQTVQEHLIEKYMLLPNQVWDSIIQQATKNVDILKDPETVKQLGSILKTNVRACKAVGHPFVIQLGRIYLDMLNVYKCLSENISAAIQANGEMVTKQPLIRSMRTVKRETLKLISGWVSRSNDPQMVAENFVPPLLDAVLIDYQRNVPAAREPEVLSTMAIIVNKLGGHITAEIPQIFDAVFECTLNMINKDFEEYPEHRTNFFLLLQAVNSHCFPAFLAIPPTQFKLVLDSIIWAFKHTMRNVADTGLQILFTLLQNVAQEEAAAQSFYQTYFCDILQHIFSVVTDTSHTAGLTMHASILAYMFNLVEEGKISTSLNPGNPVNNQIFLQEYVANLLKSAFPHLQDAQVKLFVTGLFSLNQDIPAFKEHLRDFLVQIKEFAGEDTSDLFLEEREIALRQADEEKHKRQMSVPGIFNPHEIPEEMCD

| Compound | IC50 (U87MG; [3]) [µM] | IC50 (U87MG; [4]) [µM] | IC50 (U87MG; [5]) [µM] | IC50 (T98G; [6]) [µM] | IC50 (LN-229; [7]) [µM] | IC50 (U251; [8]) [µM] | IC50 (HCN2; [9]) [µM] | IC50 (HCN2; Table 9, read-out: HCN2 IC50) [µM] | bioavailability ([1]; plasma) [%] | AUC ([1]; plasma, 10 mg/kg, 10 mpk) [ng·h/mL] | half-life ([1]; plasma) [h] | Cmax [1, 10] [ng/mL] | Kp at 1 h ([1]; rat, 10 mg/kg) | EC50 (XPO1; [11]) [µM] | IC50 (XPO1; [12]) [µM] | IC50 (XPO1; second value of the cell) [µM] | EC50 (XPO1; [13]) [µM] | other results |
| --- | --- | --- | --- | --- | --- | --- | --- | --- | --- | --- | --- | --- | --- | --- | --- | --- | --- | --- |
| O=C(/C=C\n1cnc(-c2cc(C(F)(F)F)cc(S(F)(F)(F)(F)F)c2)n1)NNc1cnccn1 [Compound I, (Z)-3-(3-(3-(pentafluorosulfanyl)-5-(trifluoromethyl)phenyl)-1H-1,2,4-triazol-1-yl)-N′-(pyrazin-2-yl)acrylohydrazide] | 0.592 | 0.384 | 0.798 | 1.7 | 0.6 | 1.2 | 25.8 | 25.8 | 98 | 10000 | 4.7 | 2550 | 0.71 | 0.012 | 0.0163 | 0.0077 | 0.012 | IC50 (U87MG; Table 6, read-out: U87MG IC50): 0.226 µM; HCN2 Max % inh (HCN2; Table 8): 22%; IC50 (HCN2; Table 8, read-out: HCN2 IC50): > 50 µM; IC50 (3T3-L1; 3T3-L1, Table 6, read-out: 3T3-L1 IC50): > 50 µM; IC50 (3T3-L1; 3T3-L1 normal cell line, 72 hours, Table 1, read-out: Growth inhibition (IC50)): > 50 µM; Cmax ([1]; rat, 10 mg/kg, 10 mpk, first number of Plasma/brain pair, read-out: Cmax/(ng/mL) Plasma): 1890 ng/mL; Cmax ([1]; rat, 10 mg/kg, 10 mpk, second number of Plasma/brain pair, read-out: Cmax/(ng/mL) brain): 1300 ng/mL; AUC(0-t) [2]: 1040 ng·h/mL; C0 [2]: 1010 ng/mL; clearance [2]: 16 mL/min/kg; half-life [2]: 1.62 h; MRT last ([2]; read-out: MRT0-last): 1.56 h; Vd ([2]; read-out: Vdss): 1.68 L/kg |
| CC(C)(C)C(=O)NNC(=O)/C=C\n1cnc(-c2cc(C(F)(F)F)cc(S(F)(F)(F)(F)F)c2)n1 [Compound III, (Z)-3-(3-(3-(Pentafluorosulfanyl)-5-(trifluoromethyl)phenyl)-1H-1,2,4-triazol-1-yl)-N′-pivaloylacrylohydrazide] | 1.74 | 1.12 | 2.36 | 6.2 | 1.8 | 3.8 | > 50 | > 50 | 82 | 13900 | 5.2 | 1600 | 0.95 | 0.211 | 0.298 | 0.125 | 0.21 | IC50 (U87MG; U87MG, Table 12, read-out: Relative IC50): 0.2 µM; Max % Inhibition (U87MG; U87MG, Table 12): 46.3%; Bottom (U87MG; U87MG, curve fit, Table 12): −4.2; Hill Slope (U87MG; U87MG, curve fit, Table 12): 3.2; Top (U87MG; U87MG, curve fit, Table 12): 40.2; IC50 (T98G; [14]): 6.25 µM; IC50 (LN-229; [14]): 1.8 µM; IC50 (U251; U251, 72 hours, Table 1, read-out: Growth inhibition (IC50)): 3.77 µM; Cmax ([1]; 3 mg/kg, 3 mpk, first number of Plasma/brain pair, read-out: Cmax/(ng/mL) Plasma): 1250 ng/mL; Cmax ([1]; 3 mg/kg, 3 mpk, second number of Plasma/brain pair, read-out: Cmax/(ng/mL) brain): 1190 ng/mL; MTD (in vivo): < 25 mg/kg; cell viability in REV-GFP assay (XPO1; 1 h, all concentrations tested): no decrease in cell viability; EC90 (XPO1; U2OS, concentration stated as EC90 in washout study, read-out: EC90 (REV-EGFP translocation)): 0.4 µM; EC50 (XPO1; concentration stated as EC50 in washout study, read-out: EC50 (REV-EGFP translocation)): 0.12 µM |
